# Test results taken from publication PMC11061835, “Elucidating the Mechanism of Metabolism of Cannabichromene by Human Cytochrome P450s” (Journal of Natural Products, 2024).
# pKd: −log10 of the molar value. Where “and” joins values, the source holds several entries; their conditions need not be identical. Equal values may be shown once.
# Tests used:
# CYP3A4 with CPR = target: T1, CYP3A4 with CPR (Homo sapiens, UniProt P08684); test: NADPH activity assay, CYP3A4 with CPR; format: biochemical; settings: CYP3A4, CBC 50 μM vs substrate-free
# T1 construct: His-tag; made in house; host or cells: E. coli DH-5α with pTGro7 plasmid (CYP)
# T1 sequence (P08684 whole entry, one chain of several): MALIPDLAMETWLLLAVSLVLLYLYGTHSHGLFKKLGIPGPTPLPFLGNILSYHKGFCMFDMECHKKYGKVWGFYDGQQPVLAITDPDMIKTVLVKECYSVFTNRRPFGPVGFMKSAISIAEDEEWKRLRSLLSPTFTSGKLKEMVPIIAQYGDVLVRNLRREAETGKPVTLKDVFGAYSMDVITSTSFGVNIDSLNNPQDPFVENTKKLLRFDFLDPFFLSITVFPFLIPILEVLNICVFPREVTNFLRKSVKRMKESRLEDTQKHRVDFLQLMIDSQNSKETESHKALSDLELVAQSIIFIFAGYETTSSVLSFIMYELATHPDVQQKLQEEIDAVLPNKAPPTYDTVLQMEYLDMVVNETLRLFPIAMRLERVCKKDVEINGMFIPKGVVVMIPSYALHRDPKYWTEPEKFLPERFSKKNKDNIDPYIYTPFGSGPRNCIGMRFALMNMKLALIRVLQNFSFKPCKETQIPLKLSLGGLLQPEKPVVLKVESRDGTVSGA
# Experimental: CYP-mediated NADPH oxidation was measured using kinetics mode in a Cary 300 UV–vis spectrometer (Agilent Technologies). 0.2 μM (final concentration) of CYP was taken in 0.1 M potassium phosphate buffer (pH 7.4) and incubated with 0.6 μM (final concentration) of CPR for 5 min with a reaction volume of 400 μL. The reaction was initiated with 200 μM of NADPH, and the absorption change was monitored over 10 min at 340 nm. The rate of NADPH consumption (or NADPH to NADP^+ conversion) was calculated by taking the molar extinction coefficient as 6.22 mM^–1 cm^–1 at 340 nm. To estimate the change in NADPH oxidation in the presence of CBC, both CYP and CPR were further incubated using CBC (final concentration 50 μM) for 5 min followed by measuring the change in absorbance at 340 nm as discussed earlier.
# [1] = target: T2, CYP2C8 in the presence of CPR (Homo sapiens, UniProt P10632); test: Spectroscopic titration, CYP2C8–CPR complex; format: binding
# T2 construct: His-tag; made in house; host or cells: E. coli DH-5α with pTGro7 plasmid (CYP)
# T2 sequence (P10632 1-490): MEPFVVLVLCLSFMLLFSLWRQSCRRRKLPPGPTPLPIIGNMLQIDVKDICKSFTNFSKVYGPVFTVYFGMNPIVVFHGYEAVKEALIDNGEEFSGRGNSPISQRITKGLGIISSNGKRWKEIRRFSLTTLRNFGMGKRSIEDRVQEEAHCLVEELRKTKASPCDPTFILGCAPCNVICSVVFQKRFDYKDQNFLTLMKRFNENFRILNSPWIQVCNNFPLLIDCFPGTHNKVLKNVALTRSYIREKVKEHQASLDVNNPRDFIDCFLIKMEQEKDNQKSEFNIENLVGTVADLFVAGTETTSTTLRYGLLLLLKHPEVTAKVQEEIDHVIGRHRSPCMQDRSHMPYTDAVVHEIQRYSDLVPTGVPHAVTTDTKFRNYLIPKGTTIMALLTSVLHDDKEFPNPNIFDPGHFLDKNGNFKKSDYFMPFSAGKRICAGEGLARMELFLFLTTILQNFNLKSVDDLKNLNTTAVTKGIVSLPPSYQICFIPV
# T2 sequence (P16435 1-677 partner): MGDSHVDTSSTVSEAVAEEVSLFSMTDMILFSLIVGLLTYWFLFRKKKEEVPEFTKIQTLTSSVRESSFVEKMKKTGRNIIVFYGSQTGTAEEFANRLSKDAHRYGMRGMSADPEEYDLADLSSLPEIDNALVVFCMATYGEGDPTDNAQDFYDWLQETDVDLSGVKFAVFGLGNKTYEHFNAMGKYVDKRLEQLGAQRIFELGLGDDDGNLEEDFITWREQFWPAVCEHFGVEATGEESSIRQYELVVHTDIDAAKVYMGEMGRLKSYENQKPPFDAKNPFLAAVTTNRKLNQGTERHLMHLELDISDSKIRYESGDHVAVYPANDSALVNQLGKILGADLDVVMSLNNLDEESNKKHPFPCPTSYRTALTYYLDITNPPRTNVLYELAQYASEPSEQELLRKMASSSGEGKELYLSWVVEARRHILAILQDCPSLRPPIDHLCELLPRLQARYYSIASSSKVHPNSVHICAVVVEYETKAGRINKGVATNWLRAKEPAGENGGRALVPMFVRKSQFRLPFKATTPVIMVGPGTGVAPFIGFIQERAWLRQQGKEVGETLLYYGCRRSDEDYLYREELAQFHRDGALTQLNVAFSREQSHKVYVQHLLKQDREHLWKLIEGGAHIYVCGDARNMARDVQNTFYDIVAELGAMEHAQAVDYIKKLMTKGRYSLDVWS
# Experimental: For CBC titration to CYP–CPR complex, initially CYPs were dissolved in 400 μL of 0.1 M phosphate buffer (pH = 7.4) keeping the concentration between […]. Following this 50 μL of CPR (50 μM stock) was added to both cuvettes, and the final concentration of both of the proteins was 5–6 μM. Both proteins were initially mixed and incubated for 5 min followed by titration with CBC in the same process as mentioned above. The substrate-bound spectra were then subtracted from substrate-free spectra, and the extent of binding was analyzed using Origin Pro 2020.
# [2] = test system: BV2 microglial cells, stimulated with lipopolysaccharide (LPS); test: TNFα ELISA in LPS-stimulated BV2 cells; format: cell-based, mouse; settings: 0.1, 1.0, 2.5, 5.0 μM
# Experimental: BV2 cells were a gift from Dr. Bob McCusker, University of Illinois. They were cultured and maintained at 37 °C in a humidified atmosphere of 95% air and 5% CO2 in high-glucose Dulbecco’s modified Eagle’s (DMEM) medium (Cat No. 10-013-CV, Corning Life Sciences), supplemented with 5% heat-inactivated fetal bovine serum (FBS), streptomycin (100 μg/mL), and penicillin (100 units/mL). Stocks of all the minor cannabinoids were made in ethanol and stored at −80 °C and diluted as required before cell treatment. A final concentration of ethanol was maintained at 0.1% in the cell culture experiments.
# BV-2 cells were plated at a density of 50 000 cells/well in a 24-well plate at 37 °C under controlled conditions. Cells were pretreated with the minor cannabinoids at various concentrations (0.1, 1.0, 2.5, 5.0 μM) for 4 h and then stimulated with LPS for 24 h. The culture medium was removed and saved for the determination of nitric oxide production through Cayman’s Griess assay. IL-6, TNFα, and Arginase 1 production was also determined utilizing collected medium. For the Greiss assay, in a 96-well plate, 100 μL of culture medium was used, and 50 μL of both Greiss reagent-1 and Greiss reagent-2 was added and incubated for 10 min. The absorbance was measured at 540 nm using a plate reader (SpectraMax iD5). The quantification was done using a calibration curve that was generated using the sodium nitrite standard obtained from Cayman Chemicals.
# BV-2 cells were pretreated with the minor cannabinoids as described previously for 4 h in serum media (reduced to 5% FBS). Cells were stimulated with LPS (25 ng/mL in growth media) and allowed to incubate for 24 h. The culture medium was collected, and the concentrations of IL-6 (Cayman Chemicals), TNFα (ThermoFisher Scientific), and arginase 1 (ThermoFisher Scientific) cytokine expression were determined using specific monoclonal antibodies by ELISA kits as per manufacturer’s instructions.
SMILES,percentage increase of NADPH consumption in the presence of CBC (CYP3A4 with CPR) [%],ΔAmax (spin state change due to heme perturbation) [1],pKd ([1]; read-out: Kd(app)),effect on TNFα production [2]
"CCCCCc1cc(O)c2c(c1)OC(C)(CCC=C(C)C)C=C2 (stereo not shown) [CBC, Cannabichromene]",~15,0.14 ± 0.00 and ~0.15,5.08 and ~5.10 and > 5.00,
CCCCCc1cc(O)c2c(c1)OC(C)(CC/C=C(\C)CO)C=C2 (stereo not shown) [8′-hydroxy-CBC],,,,increase
